Tests used:
[1] = test system: Pseudomonas aeruginosa 23587; experiment: Antibiotic diffusion assay, levofloxacin plate versus water control plate; type: cell-based; settings: zone of inhibition in levofloxacin (5 mcg/ml) plate minus water control plate; Mueller Hinton Agar, 35° C. 20 hours
Protocol: (§1) Testing method for Inhibition of the Efflux Pumps of Pseudomonas aeruzinosa 23587, E. coli 2051, Streptococcus pneumoniae 3514 and Streptococcus pyozenus 26-00
Antibiotic Diffusion Assay
The activity of efflux pump inhibitor was also assessed using an antibiotic diffusion assay. For this assay Pseudomonas aeruginosa 23587 is used. Pseudomonas aeruginosa 23587 is a clinical isolate containing multiple efflux pumps which can be mexAB, mexCD, mexEF but not limited to mex classification only. Pseudomonas aeruginosa are grown in tryptic soya broth for 20 hours at 35° C. Two antibiotic assay plates are prepared in Mueller Hinton Agar using above inoculum. The bacterial count in a plate is 1×10^6 cells/ml. In one of the plates, levofloxacin is incorporated at 5 mcg/ml, while in the control plate an equivalent amount of water is added. […]. The plates are incubated at 35° C. for 20 hours and the zone of inhibition was recorded in mm (table 2). The difference in the diameter of zone of inhibition was calculated by subtracting from the diameter of the zone of inhibition in the levofloxacin containing plate the diameter of the zone of inhibition in the water containing control plate. Example, if the diameter of the zone of inhibition in the levofloxacin plate is X mm and the diameter of the zone of inhibition in the control plate is Y mm, the difference Z=X−Y and is a measure of the activity of the efflux pump inhibitor.

E. coli 2051 = experiment: as above; type: cell-based, Escherichia coli; settings: zone of inhibition in levofloxacin (15 mcg/ml) plate minus water control plate; Mueller Hinton Agar, 35° C. 20 hours
Protocol: as §1
The activity of an efflux pump inhibitor of E. coli 2051 was also assessed using an antibiotic diffusion assay. For this assay E. coli 2051 is used. E. coli 2051 is a clinical isolate containing multiple efflux pumps. E. coli 2051 are grown in tryptic soya broth for 20 hours at 35° C. Two antibiotic assay plates are prepared in Mueller Hinton Agar using above inoculum. The bacterial count in a plate is 1×10^6 cells/ml. In one of the plates, levofloxacin is incorporated at 15 mcg/ml, while in the control plate an equivalent amount of water is added. […]. The plates are incubated at 35° C. for 20 hours and the zone of inhibition was recorded in mm (table 3) . The difference in the diameter of zone of inhibition was calculated by subtracting from the zone of inhibition in the levofloxacin containing plate the diameter of the zone of inhibition in the control plate.

[2] = test system: Mef Efflux Pump of Streptococcus pneumoniae 3514 and Streptococcus pyogenes 26-00; experiment: Two plate diffusion assay for macrolide (Mef) efflux pump inhibitors, azithromycin plate versus control plate; type: cell-based; settings: zone of inhibition in antibiotic plate (method: azithromycin 0.5 mcg/ml; footnote: levofloxacin) minus water control plate; strain not given
[3] = test system: Staphylococcus aureus 1199 B NorA+; type: cell-based; settings: combination with ciprofloxacin, broth microdilution checkerboard, 35° C. 20 hours; FIC index ≦0.5 synergistic, 0.5–2.0 additive, >2.0 antagonistic
How it was run: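 Broth microdilution checkerboard with ciprofloxacin against S. aureus 1199B NorA+, pump inhibitor titrated along one axis; inoculum 5×10^5 CFU/ml in Mueller Hinton broth, 35 °C for 20 hours. Growth read by visible turbidity, confirmed by plate reader; FIC index derived from inhibitor MIC in combination versus alone.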

Compound | Difference in Zone diameter Z1 (mm) [1] [mm] | Difference in Zone diameter Z1 (mm) (E. coli 2051) | Difference in Zone diameter Z1 (mm) [2] [mm] | FIC INDEX [3]
10-Fluoro-11-[(1∝,5∝,6∝)-6-amino-3-azabicyclo[3.1.01]hex-3yl]-3,4-dihydro-4(S)-methyl-8-oxo-2H,8H-pyrido[1,2,3-ef]-1,5-benzoxazipin-7-carboxylic acid. HCl [Example 37 (P. aeruginosa)] | 2 | 5 | – | –
CC1CCc2c(N3CCC(OC(=O)[C@@H](N)CC(=O)O)CC3)c(F)cc3c(=O)c(C(=O)O)cn1c23.Cl (mixture of isomers) [Example 27 (P. aeruginosa), (RS)-(±)-9-Fluoro-6,7-dihydro-8-4′-(L-ot-aspartyloxy)piperidin-1-yl]-5-methyl-1-oxo-1H,5H-benzo[i,j]quinolizine-2-carboxylic acid hydrochloride] | 11 | – | 6 | –
C[C@@H]1CN(c2c(F)cc3c(=O)c(C(=O)O)cn4c3c2CC[C@@H]4C)CC[C@H]1O (relative stereo) [Example 35 (P. aeruginosa), S-(−)-9-Fluoro-6,7-dihydro-8-(trans-4′-hydroxy-3′-methylpiperidin-1-yl]-5-methyl-1H,5H-benzo[i,j]quinolizine-2-carboxylic acid] | 8 | 8 | – | –
Cc1c(F)c(Br)cc2c1c(=O)c(C(=O)O)cn2C1CC1 [Example 2 (P. aeruginosa), 7-Bromo-1-cyclopropyl-6-fluoro-5-methyl-1l 4-dihydro-4-oxo-quinoline-3-carboxylic acid] | 1 | 9 | – | –
CCn1cc(C(=O)O)c(=O)c2cc(F)c(N3CC4C(N)C4C3)c(F)c21 (centres unmarked) [Example 4 (NorA), 1-Ethyl-6,8-difluoro-1,4-dihydro-7-{(1∝,5∝,6∝)-6-amino-3-azabicyclo[3.1.01]-hex-3-yl}-4-oxo-quinoline-3-carboxylic acid] | 7 | – | – | 0.192
COc1c(N2CCC(N)C(C)(C)C2)c(F)cc2c(=O)c(C(=O)O)cn(C3CC3)c12 (centres unmarked) [Example 6 (P. aeruginosa), 1-Cyclopropyl-6-fluoro-8-methoxy-1,4-dihydro-7-(4′-amino-3′-3′-dimethylpiperidin-1-yl)-4-oxo-quinoline-3-carboxylic acid] | 12 | 11 | – | –
COc1c(N2CCC(N(C)C)CC2)c(F)cc2c(=O)c(C(=O)O)cn(C3CC3)c12 [Example 7 (P. aeruginosa), 1-Cyclopropyl-6-fluoro-8-methoxy-1,4-dihydro-7-{4′-dimethylaminopiperidin-1-yl}-4-oxo-quinoline-3-carboxylic acid] | 5 | – | – | –
COc1c(N2CCC(C)(O)CC2)c(F)cc2c(=O)c(C(=O)O)cn(C3CC3)c12 [Example 8 (P. aeruginosa), 1-Cyclopropyl-6-fluoro-8-methoxy-1,4-dihydro-7-(4′-hydroxy-4′-methylpiperidin-1-yl)-4-oxo-quinoline-3-carboxylic acid] | 5 | – | – | –
NCC1CN(c2c(F)c(N)c3c(=O)c(C(=O)O)cn(C4CC4)c3c2F)CCC1O (centres unmarked) [Example 11 (P. aeruginosa), 5-Amino-1-(cyclopropyl)-6,8-difluoro-1,4-dihydro-7-(3′-aminomethyl-4′-hydroxy-piperidin-1-yl)-4-oxo-quinoline-3-carboxylic acid] | 3 | – | – | –
CCN1CCN(c2cc3c(cc2F)c(=O)c(C(=O)O)cn3C2CC2)CC1C (centres unmarked) [Example 13 (P. aeruginosa), 1-Cyclopropyl-6-fluoro-1,4-dihydro-7-(4′-ethyl-3′-methylpiperazin-1-yl)-4-oxo-quinoline-3-carboxylic acid] | 4 | – | – | –
CCN1C(C)CN(c2cc3c(cc2F)c(=O)c(C(=O)O)cn3C2CC2)CC1C (centres unmarked) [Example 16 (NorA), 1-Cyclopropyl-6-fluoro-1,4-dihydro-7-(3′,5′-dimethyl-4′-ethylpiperazin-1-yl)-4-oxo-quinoline-3-carboxylic acid] | 8 | – | – | 0.314
Nc1c(F)c(N2CCC(N)C2)c(F)c2c1c(=O)c(C(=O)O)cn2-c1ccc(F)cc1F (centres unmarked) [Example 16 (P. aeruginosa), 5-Amino-1-(2′,4′-difluorophenyl)-6,8-difluoro-1,4-dihydro-7-(3-aminopyrrolidine-1-yl)-4-oxo-quinoline-3-carboxylic acid] | 3 | – | – | –
CCOC(=O)C1(N)CCN(c2c(F)c(N)c3c(=O)c(C(=O)O)cn(C4CC4)c3c2F)C1 (centres unmarked) [Example 17 (P. aeruginosa)] | 8 | – | – | –
CCC1CN(c2nc3c(cc2F)c(=O)c(C(=O)O)cn3C2CC2)CCC1N (centres unmarked) [Example 20 (P. aeruginosa), 1-Cyclopropyl-6-fluoro-1,4-dihydro-7-(4′-amino-3′-ethylpiperidin-1-yl)-4-oxo-naphthyridine-3-carboxylic acid] | 6 | – | – | –
COc1c(N2CCC(O)C(C)(C)C2)c(F)cc2c(=O)c(C(=O)O)cn(C3CC3)c12 (centres unmarked) [Example 21 (NorA), 1-Cyclopropyl-6-fluoro-8-methoxy-1,4-dihydro-7-(4′-hydroxy-3′,3′-dimethylpiperidin-1-yl)-4-oxo-quinoline-3-carboxylic acid] | 8 | – | – | 0.264
C[C@H]1CCc2c(N3CCC(O)CC3)c(F)cc3c(=O)c(C(=O)O)cn1c23 [Example 21 (P. aeruginosa), S-(−)-9-Fluoro-6,7-dihydro-8-(4′-hydroxypiperidin-1-yl)-5-methyl-1-oxo-1H,5H-benzo[i,j]quinolizine-2-carboxylic acid 0.2 hydrate] | 5 | 9 | – | –
Cc1c(F)c(N2CCC(O)C(CN)C2)c(F)c2c1c(=O)c(C(=O)O)cn2C1CC1 (centres unmarked) [Example 25 (NorA), 1-Cyclopropyl-6,8-difluoro-5-methyl-1,4-dihydro-7-(4′-hydroxy-3′-aminomethylpiperidin-1-yl)-4-oxo-quinoline-3-carboxylic acid] | 5 | – | – | 0.192
C[C@H](N)C(=O)OC1CCN(c2c(F)cc3c(=O)c(C(=O)O)cn4c3c2CC[C@@H]4C)CC1.Cl [Example 30 (P. aeruginosa), (S)-(−)-9-Fluoro-6,7-dihydro-8-{4′-(L-alanyloxy)piperidin-1-yl}-5-methyl-1-oxo-1H,5H-benzo[i,j]quinolizine-2-carboxylic acid hydrochloride] | 9 | – | – | –
CCC1CN(c2c(F)cc3c(=O)c(C(=O)O)cn4c3c2OCC4C)CCC1O (centres unmarked) [Example 36 (P. aeruginosa), 7H-Pyrido[1,2,3-de]-1,4-benzoxazine-9-fluoro-2,3-dihydro-3-methyl-10-(4′-hydroxy-3′-ethylpiperidin-1′-yl)-7-oxo-6-carboxylic acid] | 5 | – | 5 | –
O=C(O)c1cn(C2CC2)c2nc(NC3CCNC3)c(F)cc2c1=O (centres unmarked) [Example 49 (NorA), 1-Cyclopropyl-6-fluoro-1,4-dihydro-7-(pyrrolidin-3-yl-amino)-4-oxo-1,8naphthyridine-3-carboxylic acid] | 6 | – | – | 0.188
O=C(O)c1cn(-c2ccc(F)cc2F)c2nc(NC3CCNCC3)c(F)cc2c1=O [Example 50 (NorA), 1-(2′,4′-Difluorophenyl)-6-fluoro-1,4-dihydro-7-(piperidin-4-yl-amino)-4-oxo-1,8-naphthyridine-3-carboxylic acid] | 6 | – | – | 0.314
(S)-(−)-9-Fluoro-6,7-dihydro-8-(4′-hydroxypiperidin-1-yl)-5-methyl-1-oxo-1H,5H-benzo[i,j]quinolizine-2-carboxylic acid. (L) histidine salt [Example 25 (P. aeruginosa)] | 5 | – | – | –
